Assay in all cases: relative viability (nuclei count vs DMSO), 5 days (fraction); higher = more cells survive
Compound in the assay “XMD14-99 + Bortezomib”: CN1CCN(CC1)C2=CC(=C(C=C2)NC3=NC(=C(S3)C(=O)C4=C(C=CC=C4Cl)Cl)N)OC [XMD14-99] + CC(C)C[C@H](NC(=O)[C@H](Cc1ccccc1)NC(=O)c1cnccn1)B(O)O [Bortezomib] (partner 0.002 µM)
The essentials: (§1)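 For relative viability, nuclei counts in treated wells were divided by those in vehicle wells. Lung cancer cell lines had been pin-tool dosed in 1536-well plates the day after seeding and cultured for 5 days, then fixed and stained in one step (final 0.05% Triton X-100, 1% formaldehyde, 1 ug/ml Hoechst) and imaged at 4×. Doses were one drug alone or a fixed anchor-drug dose plus five library-drug doses (not always all listed) in √10 steps, and values are duplicate-plate medians.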

Compound in the assay “XMD14-99 + OSI-027”: CN1CCN(CC1)C2=CC(=C(C=C2)NC3=NC(=C(S3)C(=O)C4=C(C=CC=C4Cl)Cl)N)OC [XMD14-99] + COc1cccc2cc(-c3nc([C@H]4CC[C@H](C(=O)O)CC4)n4ncnc(N)c34)[nH]c12 [OSI-027] (partner 0.5 µM)
The essentials:
as §1

Compound in the assay “AZD1208 + Foretinib”: N[C@@H]1CCCN(c2c(/C=C3\SC(=O)NC3=O)cccc2-c2ccccc2)C1 [AZD1208] + COc1cc2c(Oc3ccc(NC(=O)C4(C(=O)Nc5ccc(F)cc5)CC4)cc3F)ccnc2cc1OCCCN1CCOCC1 [Foretinib] (partner 0.25 µM)
The essentials: as §1

Compound in the assay “XMD14-99 + Phenformin”: CN1CCN(CC1)C2=CC(=C(C=C2)NC3=NC(=C(S3)C(=O)C4=C(C=CC=C4Cl)Cl)N)OC [XMD14-99] + N=C(N)NC(=N)NCCc1ccccc1 [Phenformin] (partner 250 µM)
The gist of the method: as §1

For the cell line UMC-11, the relative viability in the assay with XMD14-99 + Bortezomib (first compound 0.08 µM) amounted to 0.701; in the assay with XMD14-99 + Bortezomib (first compound 0.8 µM), 0.775; in the assay with XMD14-99 + Bortezomib (first compound 2.53 µM), 0.673; with XMD14-99 + Bortezomib (first compound 8 µM), 0.526; in the assay with XMD14-99 + OSI-027 (first compound 0.08 µM), 0.495; in the assay with XMD14-99 + OSI-027 (first compound 0.8 µM), 0.46. Also, the relative viability with XMD14-99 + OSI-027 (first compound 2.53 µM) came to 0.421; in the assay with XMD14-99 + OSI-027 (first compound 8 µM) it was 0.359; with AZD1208 + Foretinib (first compound 0.08 µM), 0.884; in the assay with AZD1208 + Foretinib (first compound 0.253 µM), 0.877; in the assay with AZD1208 + Foretinib (first compound 0.8 µM) it was 0.77; in the assay with AZD1208 + Foretinib (first compound 2.53 µM) it was 0.741. Moreover, the relative viability was 0.458 with AZD1208 + Foretinib (first compound 8 µM); 0.336 with XMD14-99 + Phenformin (first compound 0.08 µM); 0.314 with XMD14-99 + Phenformin (first compound 0.8 µM); 0.319 in the assay with XMD14-99 + Phenformin (first compound 2.53 µM); 0.275 with XMD14-99 + Phenformin (first compound 8 µM).

The values above are taken from the supplement of paper PMC10307832.
